The subject of data set [1] is honeybees (Apis mellifera). Put plainly: Mortality of the topically treated host honeybees (Example 1). The class given is in vivo. To be noted: 5 days at 31°C. The method, then:
(§1) In this evaluation, honeybees (Apis mellifera) taken from hives which are 70% infested with Varroa jacobsoni (Varroa mites) are chilled to immobilize the bees. A 1µl droplet of an acetone solution of test compound is applied to the dorsal abdomen of each bee. Control bees receive a 1µl droplet of acetone. A total of 50-52 bees are treated for each dose rate tested. Treatment dose rates are based upon the LD50 (dose rate required to obtain 50% mortality of healthy uninfected bees) of each test compound and are set at 10% of the LD50 and subsequent 10-fold dilutions thereof. The treated bees are placed in an incubator at 31°C in the dark and fed 50% sugar water ad libitum for 5 days. After incubation, the bees are examined for mortality and mite infestation.

The test system of data set [2] is Varroa jacobsoni (Varroa mites). Description: Efficacy against Varroa jacobsoni on topically treated honeybees (Example 1, hives 70% infested): parasite mortality. It counts as in vivo. To be noted: 120 h, 5 days at 31°C, read-out: % Mortality Parasites. The method, then:
as §1

The subject of another data set is honeybees. Put plainly: Mortality of the topically treated host honeybees (Example 2). The class given is in vivo, Apis mellifera. The note with it: bees 90% infected. The method, then:
as §1
(§2) Using essentially the same procedure described in Example 1, but employing honeybees which are 90% infected with Varroa jacobsoni, the following results are obtained and shown in Table II below.

In a further data set the test system is Varroa jacobsoni. Put plainly: Efficacy against Varroa jacobsoni on topically treated honeybees (Example 2, bees 90% infected): mite mortality. It counts as in vivo. To be noted: 120 h, read-out: % Mortality Mites. Here is the method: as §1, §2
The mark [3] stands for this setting: 0.002 µg/bee topical in acetone.

SMILES strings stand for the structures.

One may read the mortality as the percentage killed. Regarding `CN(c1ccc(F)c(C(F)(F)F)c1)c1cc(Oc2ccc(F)c(C(F)(F)F)c2)ncn1` [A], the “% Mortality Bees” value in data set [1] (0.08 µg/bee topical in acetone) was 21%; in data set [1] (0.8 µg/bee topical in acetone) it was 13%; in data set [1] (8:0 µg/bee topical in acetone), 21%. Besides, the mortality at 0.08 µg/bee in data set [2] (0.08 µg/bee topical in acetone) came to 75%. The mortality at 0.8 µg/bee in data set [2] (0.8 µg/bee topical in acetone) is 100%. In addition, the mortality at 8 µg/bee in data set [2] (8:0 µg/bee topical in acetone) was determined as 92%.

Take `Fc1ccc(Oc2cc(Oc3ccc(F)c(C(F)(F)F)c3)ncn2)cc1C(F)(F)F` [B]: the entries for the “% Mortality Bees” value in data set [1] (setting [3]), in data set [1] (0.02 µg/bee topical in acetone) and in data set [1] (0.2 µg/bee topical in acetone) were 16%, 14% and 10%, respectively. Besides, the mortality at 0.002 µg/bee in data set [2] (setting [3]) came out at 6%. Besides, the mortality at 0.02 µg/bee in data set [2] (0.02 µg/bee topical in acetone) was 36%. In addition, the mortality at 0.2 µg/bee in data set [2] (0.2 µg/bee topical in acetone) came out at 88%.

With `CN(c1ccc(F)c(C(F)(F)F)c1)c1cc(Oc2ccc(F)c(C(F)(F)F)c2)ncn1` [C], the “% Mortality Bees” value in the data set on honeybees (0.01 µg/bee topical) is given as 13%; in the data set on honeybees (0.10 µg/bee topical) it was 12%; in the data set on honeybees (1.00 µg/bee topical) it was 16%. In addition, the mortality at 0.01 µg/bee with Varroa jacobsoni (0.01 µg/bee topical) is 8%. Further, the mortality at 0.1 µg/bee with Varroa jacobsoni (0.10 µg/bee topical) worked out at 80%. For the same compound, the mortality at 1 µg/bee in the data set with Varroa jacobsoni (1.00 µg/bee topical) came out at 91%.

For the origin of these results see patent EP0972447B1, “Parasitic and saprophagous mite control on beneficial insects” (BASF AKTIENGESELLSCHAFT, priority 1998, dated 2000).
